Source: patent publication US7648966B2, “Mannose-6-phosphonate compounds for the treatment of inflammatory diseases” (Pharmaxis Pty Limited, priority 2003, dated 2010)
“And” between values parts separate entries of the source, which are not always exact repeats. Equal values may be shown once.

What was measured:
[1] = system: passively transferred EAE; assay: Passively transferred experimental autoimmune encephalomyelitis (EAE); assay type: in vivo, Lewis rats; settings: for Clinical Scores (individual rats): 45 mg/kg/day by mini-osmotic pump; for Clinical Scores (individual rats) / Mean Score: scale 0 to 5
Procedure: To study the effect of the present agents in vivo on a disease that includes in its pathogenesis the migration of T lymphocytes into a specific tissue, the brain, experiments were performed in the Lewis rat model of passively transferred EAE. MBP-specific T lymphocyte cell lines were generated from the draining LNs of Lewis rats that had been immunized with MBP in CFA essentially according to the method of Ben-Nun et al., 1981, supra. Donor T lymphocytes were generated from female 10 to 12 week old Lewis rats weighing 150 to 200 g. These rats had been injected intradermally in each hind footpad with an emulsion of guinea pig MBP (gpMBP) prepared according to Deibler, G E et al., […]. Biochem. 2:139-165 (1972), incorporated herein by reference) in CFA ([…]). The adjuvant emulsion was prepared by emulsifying equal volumes of a mixture of light mineral oil (Sigma) and a solution of the gpMBP in normal saline (0.5 mg/ml) and Mycobacterium butyricum (4 mg/ml; Difco). Thus, each rat received was 50 μg of MBP and 400 μg of M. butyricum. Approximately 11 days following injection the rats were euthanized and the draining LNs (popliteal and inguinal) were removed aseptically by blunt dissection and placed into lymphocyte culture medium as described above. A single cell suspension was prepared from the LNs as described above for spleen. The cells were washed twice in culture medium and any red blood cells were lysed with ammonium chloride as above. These cells, at concentration of 5×10^6/ml were cultured for 72 hours in the presence of MBP (0.06 mg/ml) at 37° C. in a humidified atmosphere containing 7.5% carbon dioxide. The cells were collected and the lymphoblasts were isolated by centrifugation on a Ficoll (Pharmacia, Uppsala, Sweden) gradient in an identical manner to that described by Ben Nun et al. supra. The fraction containing 90% lymphoblasts was cultured further in complete DMEM to which was added (15% v/v) a culture supernatant containing a mixture of growth factors (supernatant of concanavalin A-stimulated lymphocytes), 10% fetal calf serum, nonessential amino acids (Bio-Lab, Jerusalem, Israel). No antigen (MBP) was added. The cells were originally plated in 100 mm petri dishes at a concentration of 2×10^5 cells/mil and replated every 3 or 4 days. Prior to transfer into Lewis rat recipients, the cells were restimulated with antigen, MBP (0.01 mg/ml), and irradiated syngeneic thymocytes, as antigen-presenting cells, for 4 days. These cultured, stimulated T lymphocytes were highly encephalitogenic: as few as 5×10^5 cells could induced disease in naïve Lewis rats. In a typical experiment, a group of 5 female Lewis rats, approximately 9 weeks old, weighing 110±15 grams was anesthetized with diethyl ether and implanted with mini-osmotic pumps (Alzet 2002, Alza Corp., Palo Alto Calif., USA) containing 1-(2,4,-diimethyl phenyl)-6-phosphono-mannoside dissolved in normal saline at a concentration that delivered the drug at a rate of 45 mg/kg/day. A second group of 5 control animals were implanted under anesthesia with a similar pump containing normal saline. Just prior to recovering from the anesthetic, each animal received 5×10^5 cells of the above encephalitogenic T cell line iv in 0.2 ml of normal saline. […] The severity of EAE for each group of rats was calculated as a Disease Index (DI) which is (for those animals developing disease): [formula] This calculation allows a more complete assessment of the disease by incorporating both speed of onset and clinical severity and duration of the disease. […] In an identically designed experiment, rats were sacrificed on day 6 after T lymphocyte transfer and their spinal cords were harvested for histological assessment. Rats were deeply anesthetized (Nembutal) and perfused with 30 ml saline followed by 60 ml 10% neutral buffered formalin. Spinal cords were removed, fixed for 7 days in 10% formalin and embedded for sectioning. […]

[2] = system: passively transferred adjuvant-induced arthritis; assay: Passively transferred adjuvant arthritis; assay type: in vivo, DA rats; settings: for swelling in the affected joints at the end of the treatment period: controls severe swelling
Procedure: The experiment in this Example was designed to study the effect of the agents of the present invention in vivo on a disease that requires T lymphocyte migration into a specific tissue (synovium). Male DA rats, 8 to 10 week old, were immunized with three 100 μl injections of CFA intradermally at the base of the tail. The CFA was prepared by mixing 8 mg/ml of M. butyricum (Difco Laboratories, USA) that had been ground to a fine powder using a mortar and pestle, in 85% light mineral oil (Sigma, USA) and 15% mannide monooleate (Sigma) and emulsifying this suspension, one part in one part saline. Thus, the final emulsion contained 4 mg/ml of M. butyricum. Ten days after immunization, the rats were euthanized and their spleens removed aseptically. A single cell suspension in lymphocyte culture medium with 10% FCS was prepared as described above and adjusted to a concentration of 2×10^6 cells/ml. Con A was added at a final concentration of 2 μg/ml. The cells were cultured at 37° C. in an atmosphere of 5% carbon dioxide for 72 hours. Groups of 4 or 5 DA rats, 6 to 8 weeks of age were anesthetized with diethyl ether and implanted sc on the flank with Alzet 2002 (“2 week delivery”) or Alzet 2001 (“1 week delivery”) mini-osmotic pumps (Alza Corp., Palo Alto Calif., USA). One treatment group received 1-(2,4,-diimethyl phenyl)-6-phosphono-mannoside in the one week delivery Alzet 2001 mini-osmotic pumps. The drug was delivered at a dose of 25 mg/kg/day. The control group for this experiment received identical mini-osmotic pumps containing normal saline. In a second experiment another group of DA rats received 1-(2,4,-diimethyl phenyl)-6-phosphono-mannoside in the “2 week delivery” Alzet 2002 mini-osmotic pumps. This drug was delivered at a dose of 37 mg/kg/day. Control animals for this group received saline delivered in identical mini-osmotic pumps. While the animals were recovering from anesthesia, the above cultured lymphocytes which had been harvested and washed twice in HBSS were resuspended in normal saline and injected iv (lateral tai vein) into recipient rats, each of which received 75-90×10^6 cells in 0.5 ml. After 5 to 8 days, a characteristic thickening and cutaneous hyperemia of the distal joints of the hind legs became clinically apparent in saline treated control animals. Disease severity was evaluated and graded in each group by daily measurement of the mediolateral widths of both ankle joints. The data were expressed as the mean of the change (compared with width prior to cell injection) in mediolateral ankle width expressed in millimeters (±standard error of the mean).

[3] = 45 mg/kg/day, vs saline controls

Cc1ccc(O[C@H]2O[C@H](CCP(=O)(O)O)[C@@H](O)[C@H](O)[C@@H]2O)c(C)c1
animals that developed disease ([1]; 45 mg/kg/day, control 5/5): 3/5
DI = Group Disease Index ([1]; 45 mg/kg/day, control group DI 160): 40
duration of maximum clinical scores ([1]; 45 mg/kg/day, controls two consecutive days): none of the 3 drug treated animals that developed symptoms had maximum clinical scores for more than one day
disease onset [1, 3]: disease onset was delayed
disease severity [1, 3]: disease severity was lower than that observed in the controls
Clinical Scores (individual rats) ([1]; Day 4): 0
Mean Score ([1]; Day 4, 45 mg/kg/day): 0
Clinical Scores (individual rats) ([1]; Day 5, listed as 1-(2,4,-dimethyl phenyl)-6-phosphono-mannoside, 45 mg/kg/day): 1 (3×) and 0 (2×)
Mean Score ([1]; Day 5, 45 mg/kg/day): 0.6
Clinical Scores (individual rats) ([1]; Day 6, listed as 1-(2,4,-dimethyl phenyl)-6-phosphono-mannoside, 45 mg/kg/day): 2 (2×) and 0 (2×) and 1
Mean Score ([1]; Day 6, 45 mg/kg/day): 1
Clinical Scores (individual rats) ([1]; Day 7, listed as 1-(2,4,-dimethyl phenyl)-6-phosphono-mannoside, 45 mg/kg/day): 0 (3×) and 1 (2×)
Mean Score ([1]; Day 7, 45 mg/kg/day): 0.4
lesions/section in the most affected animal ([1]; day 6 after T lymphocyte transfer, histology): no more than 8 lesions/section
average number of spinal cord lesions ([1]; day 6 after T lymphocyte transfer, histology, control approximately 15 lesions/section): 3.5 lesions
difference in disease status of treated versus control animals ([2]; 25 mg/kg/day, end of one week treatment): highly statistically significant difference
swelling in the affected joints at the end of the treatment period ([2]; 25 mg/kg/day, one week delivery Alzet 2001 pump): little swelling
difference in disease status of treated versus control animals ([2]; 37 mg/kg/day, end of two week treatment): highly statistically significant difference
swelling in the affected joints at the end of the treatment period ([2]; 37 mg/kg/day, two week delivery Alzet 2002 pump): little swelling
